What was measured:
Experiment in all cases: cells
NCI-N87 = format: functional, cell-based; conditions: Homo sapiens;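 note: growth inhibition of human NCI-N87 cells, read out with a cell viability assay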
Description: SANGER: Inhibition of human NCI-N87 cell growth in a cell viability assay.

COLO-320-HSR = format: functional, cell-based, Homo sapiens; conditions: Homo sapiens, COLO-320-HSR;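 note: growth inhibition of COLO-320-HSR cells, determined with a cell viability assay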
Description: SANGER: Inhibition of human COLO-320-HSR cell growth in a cell viability assay.

NB69 = format: functional, cell-based, Homo sapiens; conditions: Homo sapiens, NB69;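 note: growth inhibition of NB69 cells, determined by a cell viability assay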
Description: SANGER: Inhibition of human NB69 cell growth in a cell viability assay.

ES5 = format: functional, cell-based, Homo sapiens; conditions: Homo sapiens, ES5;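 note: growth inhibition of human ES5 cells, read out by a cell viability assay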
Description: SANGER: Inhibition of human ES5 cell growth in a cell viability assay.

SW 954 = format: functional, cell-based, Homo sapiens; conditions: Homo sapiens, SW 954;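 note: growth inhibition of SW954 human cancer cells, read out as cell viability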
Description: SANGER: Inhibition of human SW954 cell growth in a cell viability assay.

NCI-H1299 = format: functional, cell-based; conditions: Homo sapiens;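 note: growth inhibition of human NCI-H1299 cells, read out by a cell viability assay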
Description: SANGER: Inhibition of human NCI-H1299 cell growth in a cell viability assay.

ALL-PO = format: functional, cell-based, Homo sapiens; conditions: Homo sapiens, ALL-PO;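 note: growth inhibition of ALL-PO cells, read out by a cell viability assay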
Description: SANGER: Inhibition of human ALL-PO cell growth in a cell viability assay.

TE-1 = format: functional, cell-based, Homo sapiens; conditions: Homo sapiens, TE-1
Description: SANGER: Inhibition of human TE-1 cell growth in a cell viability assay.

ES3 = format: functional, cell-based, Homo sapiens; conditions: Homo sapiens, ES3;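 note: growth inhibition of ES3 cells, read out with a cell viability assay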
Description: SANGER: Inhibition of human ES3 cell growth in a cell viability assay.

RH-1 = format: functional, cell-based, Homo sapiens; conditions: Homo sapiens, RH-1;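 note: growth inhibition of human RH-1 cells, read out with a cell viability assay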
Description: SANGER: Inhibition of human RH-1 cell growth in a cell viability assay.

Calu-6 = format: functional, cell-based, Homo sapiens; conditions: Homo sapiens, Calu-6;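 note: growth of human Calu-6 cells, read out by a cell viability assay, IC50 marking inhibition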
Description: SANGER: Inhibition of human Calu-6 cell growth in a cell viability assay.

NCI-H2126 = format: functional, cell-based, Homo sapiens; conditions: Homo sapiens, NCI-H2126;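 note: growth inhibition of the cancer cell line, determined with a cell viability readout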
Description: SANGER: Inhibition of human NCI-H2126 cell growth in a cell viability assay.

K562 = format: functional, cell-based, Homo sapiens; conditions: Homo sapiens, K562
Description: SANGER: Inhibition of human K-562 cell growth in a cell viability assay.

NOMO-1 = format: functional, cell-based, Homo sapiens; conditions: Homo sapiens, NOMO-1;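 note: growth inhibition of human NOMO-1 cells measured by a cell viability assay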
Description: SANGER: Inhibition of human NOMO-1 cell growth in a cell viability assay.

SK-MEL-2 = format: functional, cell-based, Homo sapiens; conditions: Homo sapiens, SK-MEL-2;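 note: growth inhibition of human SK-MEL-2 cells measured with a cell viability assay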
Description: SANGER: Inhibition of human SK-MEL-2 cell growth in a cell viability assay.

JVM-3 = format: functional, cell-based, Homo sapiens; conditions: Homo sapiens, JVM-3;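 note: growth inhibition of human JVM-3 cells, read out with a cell viability assay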
Description: SANGER: Inhibition of human JVM-3 cell growth in a cell viability assay.

MN-60 = format: functional, cell-based, Homo sapiens; conditions: Homo sapiens, MN-60;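 note: growth inhibition of the MN-60 cell line, determined with a cell viability assay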
Description: SANGER: Inhibition of human MN-60 cell growth in a cell viability assay.

SW684 = format: functional, cell-based, Homo sapiens; conditions: Homo sapiens, SW684; read-out: IC50;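 note: growth inhibition of human SW684 cells, measured by a cell viability assay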
Description: SANGER: Inhibition of human SW684 cell growth in a cell viability assay.

COLO-824 = format: functional, cell-based, Homo sapiens; conditions: Homo sapiens, COLO-824
Description: SANGER: Inhibition of human COLO-824 cell growth in a cell viability assay.

Becker = format: functional, cell-based, Homo sapiens; conditions: Homo sapiens, Becker;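 note: growth inhibition of Becker cells, read out with a cell viability assay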
Description: SANGER: Inhibition of human Becker cell growth in a cell viability assay.

NCI-H1648 = format: functional, cell-based, Homo sapiens; conditions: Homo sapiens, NCI-H1648;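 note: cell viability assay measuring inhibition of NCI-H1648 cell growth, from the Sanger screening data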
Description: SANGER: Inhibition of human NCI-H1648 cell growth in a cell viability assay.

L-428 = format: functional, cell-based, Homo sapiens; conditions: Homo sapiens, L-428
Description: SANGER: Inhibition of human L-428 cell growth in a cell viability assay.

NKM-1 = format: functional, cell-based, Homo sapiens; conditions: Homo sapiens, NKM-1;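 note: growth inhibition of NKM-1 cells, read out with a cell viability assay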
Description: SANGER: Inhibition of human NKM-1 cell growth in a cell viability assay.

MOLT-16 = format: functional, cell-based, Homo sapiens; conditions: Homo sapiens, MOLT-16;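 note: growth inhibition of human MOLT-16 cells, read out with a cell viability assay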
Description: SANGER: Inhibition of human MOLT-16 cell growth in a cell viability assay.

SNU-C2B = format: functional, cell-based; conditions: Homo sapiens;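 note: cell viability readout used to measure compound-driven suppression of SNU-C2B cell proliferation, IC50 marking half-maximal growth inhibition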
Description: SANGER: Inhibition of human SNU-C2B cell growth in a cell viability assay.

LS-411N = format: functional, cell-based, Homo sapiens; conditions: Homo sapiens, LS-411N
RS4-11 = format: functional, cell-based, Homo sapiens; conditions: Homo sapiens, RS4-11;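 note: growth inhibition of RS4-11 cells, read out by a cell viability assay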
Description: SANGER: Inhibition of human RS4-11 cell growth in a cell viability assay.

DB = format: functional, cell-based, Homo sapiens; conditions: Homo sapiens, DB
Description: SANGER: Inhibition of human DB cell growth in a cell viability assay.

NB6 = format: functional, cell-based, Homo sapiens; conditions: Homo sapiens, NB6
Description: SANGER: Inhibition of human NB6 cell growth in a cell viability assay.

TE-6 = format: functional, cell-based, Homo sapiens; conditions: Homo sapiens, TE-6;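 note: growth inhibition of TE-6 cells, read out with a cell viability assay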
Description: SANGER: Inhibition of human TE-6 cell growth in a cell viability assay.

NCI-H1155 = format: functional, cell-based, Homo sapiens; conditions: Homo sapiens, NCI-H1155;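 note: cell growth inhibition measured by a viability assay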
Description: SANGER: Inhibition of human NCI-H1155 cell growth in a cell viability assay.

LB2241-RCC = format: functional, cell-based, Homo sapiens; conditions: Homo sapiens, LB2241-RCC;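 note: cell viability assay measuring how strongly the cultured human renal carcinoma line is prevented from growing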
Description: SANGER: Inhibition of human LB2241-RCC cell growth in a cell viability assay.

OMC-1 = format: functional, cell-based, Homo sapiens; conditions: Homo sapiens, OMC-1;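 note: growth inhibition of the OMC-1 cell line, measured by a cell viability assay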
Description: SANGER: Inhibition of human OMC-1 cell growth in a cell viability assay.

COLO-668 = format: functional, cell-based, Homo sapiens; conditions: Homo sapiens, COLO-668
Description: SANGER: Inhibition of human COLO-668 cell growth in a cell viability assay.

TE-11 = format: functional, cell-based; conditions: Homo sapiens;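 note: growth inhibition of human TE-11 cells, read out by a cell viability assay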
Description: SANGER: Inhibition of human TE-11 cell growth in a cell viability assay.

MS-1 = format: functional, cell-based, Homo sapiens; conditions: Homo sapiens, MS-1;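 note: growth inhibition of MS-1 cells, read out by cell viability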
Description: SANGER: Inhibition of human MS-1 cell growth in a cell viability assay.

C8166 = format: functional, cell-based, Homo sapiens; conditions: Homo sapiens, C8166;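 note: growth inhibition of human C8166 cells measured by a cell viability assay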
Description: SANGER: Inhibition of human C8166 cell growth in a cell viability assay.

MZ2-MEL = format: functional, cell-based, Homo sapiens; conditions: Homo sapiens, MZ2-MEL;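 note: growth inhibition of MZ2-MEL cells read out with a cell viability assay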
Description: SANGER: Inhibition of human MZ2-MEL cell growth in a cell viability assay.

SCH = format: functional, cell-based, Homo sapiens; conditions: Homo sapiens, SCH;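 note: growth inhibition of human SCH cells, read out in a cell viability assay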
Description: SANGER: Inhibition of human SCH cell growth in a cell viability assay.

NB13 = format: functional, cell-based, Homo sapiens; conditions: Homo sapiens, NB13;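 note: cell viability readout measuring growth inhibition of human NB13 cells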
Description: SANGER: Inhibition of human NB13 cell growth in a cell viability assay.

LB771-HNC = format: functional, cell-based; conditions: Homo sapiens;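 note: growth inhibition of LB771-HNC human cells, read out with a cell viability assay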
Description: SANGER: Inhibition of human LB771-HNC cell growth in a cell viability assay.

KM-H2 = format: functional, cell-based, Homo sapiens; conditions: Homo sapiens, KM-H2;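 note: growth inhibition of KM-H2 cells, read out by a cell viability assay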
Description: SANGER: Inhibition of human KM-H2 cell growth in a cell viability assay.

BT-474 = format: functional, cell-based, Homo sapiens; conditions: Homo sapiens, BT-474
Description: SANGER: Inhibition of human BT-474 cell growth in a cell viability assay.

NCI-H1304 = format: functional, cell-based, Homo sapiens; conditions: Homo sapiens, NCI-H1304;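 note: growth inhibition of the cancer cell line, measured in a cell viability assay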
Description: SANGER: Inhibition of human NCI-H1304 cell growth in a cell viability assay.

CTV-1 = format: functional, cell-based, Homo sapiens; conditions: Homo sapiens, CTV-1;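 note: growth inhibition of the cell line, read out with a cell viability assay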
Description: SANGER: Inhibition of human CTV-1 cell growth in a cell viability assay.

COR-L88 = format: functional, cell-based, Homo sapiens; conditions: Homo sapiens, COR-L88;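 note: growth inhibition of COR-L88 cells, read out with a cell viability assay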
Description: SANGER: Inhibition of human COR-L88 cell growth in a cell viability assay.

SNU-5 = format: functional, cell-based, Homo sapiens; conditions: Homo sapiens, SNU-5;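 note: cell viability readout used to measure growth inhibition in human NCI-SNU-5 cells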
Description: SANGER: Inhibition of human NCI-SNU-5 cell growth in a cell viability assay.

HCC2218 = format: functional, cell-based, Homo sapiens; conditions: Homo sapiens, HCC2218;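 note: cell viability assay read-out, with IC50 given as the concentration that inhibits growth of the cell line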
Description: SANGER: Inhibition of human HCC2218 cell growth in a cell viability assay.

KU812 cell line = format: functional, cell-based, Homo sapiens; conditions: Homo sapiens, KU812;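 note: growth inhibition of KU812 cells, read out with a cell viability assay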
Description: SANGER: Inhibition of human KU812 cell growth in a cell viability assay.

Measured: IC50

CO[C@@H]1[C@H](N(C)C(=O)c2ccccc2)C[C@H]2O[C@]1(C)n1c3ccccc3c3c4c(c5c6ccccc6n2c5c31)C(=O)NC4 [MIDOSTAURIN]
> 512 nM: NCI-N87 | COLO-320-HSR | NB69

O=C(NCCCNc1nc(Nc2cccc(NC(=O)N3CCCC3)c2)ncc1I)c1cccs1 [BX-795]
1060 nM: ALL-PO
1650 nM: TE-11
3440 nM: SW 954
362 nM: NKM-1
2690 nM: NCI-H1155 | LB2241-RCC
1160 nM: NB69
1700 nM: RH-1
2130 nM: DB
2740 nM: NB6
726 nM: RS4-11
3010 nM: Becker
3170 nM: MOLT-16
1190 nM: ES5
4020 nM: SK-MEL-2 | NB13
3590 nM: MN-60
2620 nM: ES3
1860 nM: JVM-3
not listed: CTV-1 | COR-L88 | SNU-5 | HCC2218 | KU812 cell line
> 5000 nM: all other assays above

NC(=O)c1ccc(N(C(N)=O)c2c(F)cccc2F)nc1-c1ccc(F)cc1F [VX-702]
497 nM: HCC2218
125 nM: KU812 cell line
335 nM: COR-L88
184 nM: CTV-1
> 2000 nM: all other assays above

— ChEMBL document CHEMBL1201861, “Genomics of Drug Sensitity in Cancer screening data, Wellcome Trust Sanger Institute”
